Assay results as given in paper PMC7031696 (Cell chemical biology, 2019).
pIC50: −log10 of the molar value. Where two headings read alike, the source gives them in different places.

Key:
[1] = system: Plasmodium falciparum 3D7-A10 parasites; test: Stage specificity assay (8-h exposure of synchronized stages, IC50^8h); format: cell-based; settings: for IC50 / pIC50: Plasmodium falciparum
[2] = system: asynchronous 3D7-A10 parasite cultures; test: Standard 72-h exposure asexual blood stage susceptibility assay (IC50^72h); format: cell-based, Plasmodium falciparum; settings: Plasmodium falciparum, 3D7, 72 h, read-out: Overall (72hr assay) Mean IC50 (IC50^72h)
[3] = system: 3D7-MR4 trophozoite parasite-infected RBCs; test: Metabolomic profiling (hydrophilic metabolite changes, UHPLC-MS); format: cell-based, Plasmodium falciparum
[4] = 1.5 h, 500 μM, pH 7.4
[5] = system: 3D7-MR4 trophozoite parasite-infected RBCs; settings: 10 × IC50^72h; ref Allman et al., 2016; cited from earlier work

SMILES: CCCN(CCC)CC(O)COc1ccccc1C(=O)Nc1ccccc1 (centres unmarked) [MMV006455]
- Ratio lowest IC50 8hr/IC50 72hr ([1]; 3D7-A10): 1.0
- killing in stage specificity assay ([1]; 8-h exposures, survival curves): incomplete killing at all asexual blood stages
- IC50 ([1]; 3D7, read-out: Early rings IC50 (IC50^8h), 8-h exposure 0–8 hr, bound given in μM): > 12.5 µM
- pIC50 ([1]; 3D7, read-out: Early trophozoites Mean IC50 (IC50^8h), 8-h exposure 16–24 hr, 3D7-A10, survival at 60 h): 6.36
- IC50 ([1]; 3D7, read-out: Late rings IC50 (IC50^8h), 8-h exposure 8–16 hr, bound given in μM): > 12.5 µM
- pIC50 ([1]; 3D7, read-out: Late trophozoites Mean IC50 (IC50^8h), 8-h exposure 24–32 hr, 3D7-A10, survival at 60 h): 6.35
- pIC50 ([1]; 3D7, read-out: Schizonts Mean IC50 (IC50^8h), 8-h exposure 32–40 hr, 3D7-A10, survival at 60 h): 6.03
- Stage of peak activity (Figure 6) ([1]; period when the parasite was most susceptible (lowest IC50^8h)): trophozoites
- Peak Activity (Table S1) ([1]; stage(s) with the lowest IC50^8h): Trophs
- pIC50 [2]: 6.36
- Log2(fold changes) 3-phosphoglycerate ([3]; metabolite 3-phosphoglycerate, log2 fold change): 0.4787
- Log2(fold changes) 4-Pyridoxic acid ([3]; metabolite 4-Pyridoxic acid, log2 fold change): -0.2918
- Log2(fold changes) 4-aminobutyrate ([3]; metabolite 4-aminobutyrate, log2 fold change): 0.4559
- Log2(fold changes) 4-phosphopantetheine ([3]; metabolite 4-phosphopantetheine, log2 fold change): 0.0000
- Log2(fold changes) 4-phosphopantothenate ([3]; metabolite 4-phosphopantothenate, log2 fold change): 0.3730
- Log2(fold changes) 5-aminopentanoic acid ([3]; metabolite 5-aminopentanoic acid, log2 fold change): 0.0000
- Log2(fold changes) 5-methyl-THF ([3]; metabolite 5-methyl-THF, log2 fold change): 0.0000
- Log2(fold changes) 5-phosphoribosyl-1-pyrophosphate ([3]; metabolite 5-phosphoribosyl-1-pyrophosphate, log2 fold change): -0.9177
- Log2(fold changes) 6-phospho-D-gluconate ([3]; metabolite 6-phospho-D-gluconate, log2 fold change): 0.4580
- Log2(fold change) HVDD ([3]; metabolite HVDD): 0.0000
- Log2(fold change) Hydroxyisocaproic acid ([3]; metabolite Hydroxyisocaproic acid): 0.0000
- Log2(fold change) IDP ([3]; metabolite IDP): 0.0000
- Log2(fold change) IMP ([3]; metabolite IMP): 0.8206
- Log2(fold change) Inositol ([3]; metabolite Inositol): 0.0000
- Log2(fold change) Isopentyl-PP ([3]; metabolite Isopentyl-PP): 0.0000
- Log2(fold change) L-arginino-succinate ([3]; metabolite L-arginino-succinate): 0.0000
- Log2(fold change) LD ([3]; metabolite LD): -0.4790
- Log2(fold change) Myristoyl/tetradecanoyl-CoA ([3]; metabolite Myristoyl/tetradecanoyl-CoA): 0.0000
- Log2(fold change) N-Acetyl-L-alanine ([3]; metabolite N-Acetyl-L-alanine): -0.7708
- Log2(fold change) N-acetyl-L-ornithine ([3]; metabolite N-acetyl-L-ornithine): -1.4120
- Log2(fold change) N-acetyl-glucosamine-1/6-phosphate ([3]; metabolite N-acetyl-glucosamine-1/6-phosphate): 1.1792
- Log2(fold change) N-acetyl-glutamate ([3]; metabolite N-acetyl-glutamate): 0.9055
- Log2(fold change) N-acetyl-glutamine ([3]; metabolite N-acetyl-glutamine): -0.4062
- Log2(fold change) N-carbamoyl-L-aspartate ([3]; metabolite N-carbamoyl-L-aspartate): -1.3580
- Log2(fold change) NAD+ ([3]; metabolite NAD+): 0.6496
- Log2(fold change) NADH ([3]; metabolite NADH): -0.2919
- Log2(fold change) NADP+ ([3]; metabolite NADP+): 1.1032
- Log2(fold change) NADPH ([3]; metabolite NADPH): 1.2448
- Log2(fold change) O-acetyl-L-serine ([3]; metabolite O-acetyl-L-serine): 0.0000
- Log2(fold change) Octoluse 8/1P ([3]; metabolite Octoluse 8/1P): -0.0556
- Log2(fold change) Octoluse Bisphosphate ([3]; metabolite Octoluse Bisphosphate): 0.1196
- Log2(fold change) PD ([3]; metabolite PD): -1.7411
- Log2(fold change) PE ([3]; metabolite PE): 2.1593
- Log2(fold change) PEE ([3]; metabolite PEE): -6.2592
- Log2(fold change) PEEK ([3]; metabolite PEEK): -3.5426
- Log2(fold change) PVNF ([3]; metabolite PVNF): -1.5028
- Log2(fold change) Pyroglutamic acid ([3]; metabolite Pyroglutamic acid): -0.5503
- Log2(fold change) Pyrophosphate ([3]; metabolite Pyrophosphate): -0.6263
- Log2(fold change) Ribose-5-phosphate ([3]; metabolite Ribose-5-phosphate): 0.0000
- Log2(fold change) S-adenosyl-L-homocysteine ([3]; metabolite S-adenosyl-L-homocysteine): 0.2802
- Log2(fold change) S-adenosyl-L-methioninamine ([3]; metabolite S-adenosyl-L-methioninamine): 0.0000
- Log2(fold change) S-adenosyl-L-methionine ([3]; metabolite S-adenosyl-L-methionine): 0.0000
- Log2(fold change) S-methyl-5'-thioadenosine ([3]; metabolite S-methyl-5'-thioadenosine): 1.5238
- Log2(fold change) SD ([3]; metabolite SD): -2.2607
- Log2(fold change) SDL ([3]; metabolite SDL): 0.0000
- Log2(fold change) SID ([3]; metabolite SID): 0.0000
- Log2(fold change) Sedoheptulose bisphosphate ([3]; metabolite Sedoheptulose bisphosphate): 0.2316
- Log2(fold change) Thiamine pyrophosphate ([3]; metabolite Thiamine pyrophosphate): 0.0000
- Log2(fold changes) UDP-D-glucose ([3]; metabolite UDP-D-glucose, log2 fold change): 0.1600
- Log2(fold changes) UDP-D-glucuronate ([3]; metabolite UDP-D-glucuronate, log2 fold change): -0.0808
- Log2(fold changes) UDP-N-acetyl-glucosamine ([3]; metabolite UDP-N-acetyl-glucosamine, log2 fold change): 0.3510
- Log2(fold changes) UDP ([3]; metabolite UDP, log2 fold change): 0.8505
- Log2(fold changes) UMP ([3]; metabolite UMP, log2 fold change): -0.5223
- Log2(fold changes) UTP ([3]; metabolite UTP, log2 fold change): -1.8892
- Log2(fold change) hydroxyphenylpyruvate ([3]; metabolite hydroxyphenylpyruvate): 0.0000
- Log2(fold change) hydroxyproline/Aminolevulinate ([3]; metabolite hydroxyproline/Aminolevulinate): 0.0000
- Log2(fold change) hypoxanthine ([3]; metabolite hypoxanthine): 0.1926
- Log2(fold change) indole ([3]; metabolite indole): -0.2645
- Log2(fold change) inosine ([3]; metabolite inosine): 0.3717
- Log2(fold change) isoleucine ([3]; metabolite isoleucine): 0.0000
- Log2(fold change) lactate ([3]; metabolite lactate): 1.3382
- Log2(fold change) leucine ([3]; metabolite leucine): 0.0000
- Log2(fold change) lysine ([3]; metabolite lysine): 0.0000
- Log2(fold change) malate ([3]; metabolite malate): 1.2603
- Log2(fold change) maleic acid ([3]; metabolite maleic acid): 0.0000
- Log2(fold change) methionine ([3]; metabolite methionine): 0.0000
- Log2(fold change) myo-inositol ([3]; metabolite myo-inositol): 3.3468
- Log2(fold change) nicotinamide mononucleotide ([3]; metabolite nicotinamide mononucleotide): 0.0000
- Log2(fold change) nicotinate ([3]; metabolite nicotinate): 0.0981
- Log2(fold change) ornithine ([3]; metabolite ornithine): -0.2237
- Log2(fold change) orotate ([3]; metabolite orotate): -1.3257
- Log2(fold change) orotidine-5'-phosphate ([3]; metabolite orotidine-5'-phosphate): 0.0000
- Log2(fold change) oxaloacetate ([3]; metabolite oxaloacetate): 0.0000
- Log2(fold change) p-aminobenzoate ([3]; metabolite p-aminobenzoate): 0.0000
- Log2(fold change) p-hydroxybenzoate ([3]; metabolite p-hydroxybenzoate): 0.4381
- Log2(fold change) pantothenate ([3]; metabolite pantothenate): 0.0000
- Log2(fold change) phenylalanine ([3]; metabolite phenylalanine): 0.0000
- Log2(fold change) phenylpyruvate ([3]; metabolite phenylpyruvate): 0.1142
- Log2(fold change) phosphoenolpyruvate ([3]; metabolite phosphoenolpyruvate): 0.0121
- Log2(fold change) prephenate ([3]; metabolite prephenate): 0.0000
- Log2(fold change) proline ([3]; metabolite proline): 0.0000
- Log2(fold change) pyridoxine ([3]; metabolite pyridoxine): 0.0000
- Log2(fold change) pyruvate ([3]; metabolite pyruvate): 0.4670
- Log2(fold change) riboflavin ([3]; metabolite riboflavin): 0.0000
- Log2(fold change) ribose ([3]; metabolite ribose): 0.0000
- Log2(fold change) ribose-phosphate ([3]; metabolite ribose-phosphate): -0.0481
- Log2(fold change) ribulose-5-phosphate ([3]; metabolite ribulose-5-phosphate): 0.0000
- Log2(fold change) serine ([3]; metabolite serine): 0.0000
- Log2(fold change) sn-glycerol-3-phosphate ([3]; metabolite sn-glycerol-3-phosphate): -0.3619
- Log2(fold change) succinate/Methylmalonic acid ([3]; metabolite succinate/Methylmalonic acid): -0.7549
- Log2(fold change) succinyl-CoA/methylmalonyl-CoA ([3]; metabolite succinyl-CoA/methylmalonyl-CoA): 0.0000
- Log2(fold change) taurine ([3]; metabolite taurine): 0.0000
- Log2(fold change) thiamine ([3]; metabolite thiamine): 0.0000
- Log2(fold change) threonine/homoserine ([3]; metabolite threonine/homoserine): 0.0000
- Log2(fold change) thymidine ([3]; metabolite thymidine): -0.5446
- Log2(fold changes) thymine ([3]; metabolite thymine, log2 fold change): 3.4235
- Log2(fold changes) trehalose-6-Phosphate ([3]; metabolite trehalose-6-Phosphate, log2 fold change): 0.0000
- Log2(fold changes) tryptophan ([3]; metabolite tryptophan, log2 fold change): 0.0000
- Log2(fold changes) tyrosine ([3]; metabolite tyrosine, log2 fold change): 0.0000
- Log2(fold changes) uridine ([3]; metabolite uridine, log2 fold change): 0.2304
- Ratio fil./std. (absorbance filtrate/standard) [4]: 1.00
- levels of cAMP [5]: decreased
- levels of the deoxyribonucleotides dAMP and dTMP [5]: increased
- peptide levels (hemoglobin catabolism signature) [5]: decreased peptide levels
- solubility at 1.5 h (physchem; pH 7.4): > 100 µM
- solubility at 1.5 h (physchem; pH 7.4, aqueous buffer, kinetic from dmso stock): ≥ 500 µM
